ChEMBL document CHEMBL3259703, “Synthesis and preliminary biological evaluation of 1,2,3-triazole-Jaspine B hybrids as potential cytotoxic agents” (Eur J Med Chem, 2014)

Experiments:
Format in all cases: functional, cell-based
MGC-803 = experiment: Antiproliferative activity against human MGC803 cells after 48 hrs by MTT assay; conditions: MGC-803, 48 h
MCF7 = experiment: Antiproliferative activity against human MCF7 cells after 48 hrs by MTT assay; conditions: MCF7, 48 h
[1] = Antiproliferative activity against human EC9706 cells after 48 hrs by MTT assay; conditions: EC9706, 48 h

| SMILES | IC50 (MGC-803) [µM] | IC50 (MCF7) [µM] | IC50 [1] [µM] |
| --- | --- | --- | --- |
| CCCCCCCn1cc(COC[C@@H]2OC[C@H](N)[C@@H]2O)nn1 | > 128 | > 128 | > 128 |
| CCCCCCCCn1cc(COC[C@@H]2OC[C@H](N)[C@@H]2O)nn1 | 70.4 | 28.1 | 44.3 |
| CCCCCCCCCCCCn1cc(COC[C@@H]2OC[C@H](N)[C@@H]2O)nn1 | 21.4 | 2.21 | 16 |
| CCCCCCCCCCCCCCCCn1cc(COC[C@@H]2OC[C@H](N)[C@@H]2O)nn1 | 27.9 | 3.3 | 20 |
| CCCCCCCn1cc(COC[C@@H]2OC[C@H](N)[C@H]2O)nn1 | > 128 | > 128 | > 128 |

Stronger by IC50 (MGC-803), values ahead:

| IC50 (MGC-803) [µM] | IC50 (MCF7) [µM] | SMILES | IC50 [1] [µM] |
| --- | --- | --- | --- |
| 15.4 | 7.58 | CCCCCCCCCCCCCCCCCCn1cc(COC[C@@H]2OC[C@H](N)[C@@H]2O)nn1 | 17.8 |
| 13.8 | 12.4 | CCCCCCCCCn1cc(COC[C@@H]2OC[C@H](N)[C@@H]2O)nn1 | 20.1 |
| 8.78 | 9.64 | CCCCCCCCCCn1cc(COC[C@@H]2OC[C@H](N)[C@@H]2O)nn1 | 15.6 |
| 8.21 | 1.85 | CCCCCCCCCCCCCCn1cc(COC[C@@H]2OC[C@H](N)[C@@H]2O)nn1 | 7.83 |
